From patent US20220119354A1, “DIAMINO-SUBSTITUTED PYRIDINES AND PYRIMIDINES AS HERBICIDES” (FMC Corporation, priority 2019, published 2022)

Experiments:
Format in all cases: in vivo
[1] = test system: barnyardgrass (Echinochloa crus-galli); assay: Test A preemergence, barnyardgrass; settings: 0 to 100 scale, 0 is no effect, 100 is complete control
Outline: (§1)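 Greenhouse pot test, loam/sand soil. Pre: directed soil spray at planting; post: foliar spray at 1–2 leaf stage (2–10 cm). Chemical in non-phytotoxic solvent + surfactant. Visual rating ~10 d, 0 = no effect, 100 = complete control.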

kochia (Kochia scoparia) [2] = assay: Test A preemergence, kochia; settings: 0 to 100 scale, 0 is no effect, 100 is complete control
Outline: as §1

[3] = test system: ragweed (common ragweed, Ambrosia elatior); assay: Test A preemergence, ragweed; settings: 0 to 100 scale, 0 is no effect, 100 is complete control
Outline: as §1

[4] = test system: ryegrass, Italian (Lolium multiflorum); assay: Test A preemergence, Italian ryegrass; settings: 0 to 100 scale, 0 is no effect, 100 is complete control
Outline: as §1

[5] = test system: foxtail, giant (Setaria faberii); assay: Test A preemergence, giant foxtail; settings: 0 to 100 scale, 0 is no effect, 100 is complete control
Outline: as §1

[6] = test system: pigweed (Amaranthus retroflexus); assay: Test A preemergence, pigweed; settings: 0 to 100 scale, 0 is no effect, 100 is complete control
Outline: as §1

[7] = test system: barnyardgrass (Echinochloa crus-galli); assay: Test A postemergence, barnyardgrass; settings: 0 to 100 scale; for Plant response rating, Barnyardgrass: 125 g ai/ha, 0 no effect, 100 complete control; for Barnyardgrass plant response rating: 500 g ai/ha, 0 is no effect, 100 is complete control
Outline: as §1

kochia (Kochia scoparia) [8] = assay: Test A postemergence, kochia; settings: 0 to 100 scale; for Plant response rating, Kochia: 125 g ai/ha, 0 no effect, 100 complete control; for Kochia plant response rating: 500 g ai/ha, 0 is no effect, 100 is complete control
Outline: as §1

[9] = test system: ragweed (common ragweed, Ambrosia elatior); assay: Test A postemergence, ragweed; settings: 0 to 100 scale; for Plant response rating, Ragweed: 125 g ai/ha, 0 no effect, 100 complete control; for Ragweed plant response rating: 500 g ai/ha, 0 is no effect, 100 is complete control
Outline: as §1

[10] = test system: ryegrass, Italian (Lolium multiflorum); assay: Test A postemergence, Italian ryegrass; settings: 0 to 100 scale; for Plant response rating, Ryegrass, Italian: 125 g ai/ha, 0 no effect, 100 complete control; for Ryegrass, Italian plant response rating: 500 g ai/ha, 0 is no effect, 100 is complete control
Outline: as §1

[11] = test system: foxtail, giant (Setaria faberii); assay: Test A postemergence, giant foxtail; settings: 0 to 100 scale; for Plant response rating, Foxtail, Giant: 125 g ai/ha, 0 no effect, 100 complete control; for Foxtail, Giant plant response rating: 500 g ai/ha, 0 is no effect, 100 is complete control
Outline: as §1

[12] = test system: pigweed (Amaranthus retroflexus); assay: Test A postemergence, pigweed; settings: 0 to 100 scale; for Plant response rating, Pigweed: 125 g ai/ha, 0 no effect, 100 complete control; for Pigweed plant response rating: 500 g ai/ha, 0 is no effect, 100 is complete control
Outline: as §1

[13] = test system: wheat (Triticum aestivum); assay: Test A postemergence, wheat; settings: 0 to 100 scale; for Plant response rating, Wheat: 125 g ai/ha, 0 no effect, 100 complete control; for Wheat plant response rating: 500 g ai/ha, 0 is no effect, 100 is complete control
Outline: as §1

corn (Zea mays) = assay: Test A postemergence, corn; settings: 0 to 100 scale; for Plant response rating, Corn: 125 g ai/ha, 0 no effect, 100 complete control; for Corn plant response rating: 500 g ai/ha, 0 is no effect, 100 is complete control
Outline: as §1

[14] = test system: blackgrass (Alopecurus myosuroides); assay: Test A postemergence, blackgrass; settings: 0 to 100 scale; for Plant response rating, Blackgrass: 125 g ai/ha, 0 no effect, 100 complete control; for Blackgrass plant response rating: 500 g ai/ha, 0 is no effect, 100 is complete control
Outline: as §1

[15] = test system: galium (catchweed bedstraw, Galium aparine); assay: Test A postemergence, galium; settings: 0 to 100 scale; for Plant response rating, Galium: 125 g ai/ha, 0 no effect, 100 complete control; for Galium plant response rating: 500 g ai/ha, 0 is no effect, 100 is complete control
Outline: as §1

rice (Oryza sativa) = assay: Test B flooded paddy test, rice; settings: Flood, 250 g ai/ha, applied to paddy water, 2-leaf stage, visual evaluation after 13 to 15 d
Outline: (§2)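 Visual injury scores run from 0 (no effect) to 100 (complete control), assigned by comparison with controls 13 to 15 d after treatment. Treatment went into floodwater standing 3 cm over the soil of pots holding 2-leaf plants.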

[16] = test system: sedge, umbrella (small-flower umbrella sedge, Cyperus difformis); assay: Test B flooded paddy test, umbrella sedge; settings: Flood, 250 g ai/ha, applied to paddy water, 2-leaf stage, visual evaluation after 13 to 15 d
Outline: as §2

[17] = test system: ducksalad (Heteranthera limosa); assay: Test B flooded paddy test, ducksalad; settings: Flood, 250 g ai/ha, applied to paddy water, 2-leaf stage, visual evaluation after 13 to 15 d
Outline: as §2

[18] = test system: barnyardgrass (Echinochloa crus-galli); assay: Test B flooded paddy test, barnyardgrass; settings: Flood, 250 g ai/ha, applied to paddy water, 2-leaf stage, visual evaluation after 13 to 15 d
Outline: as §2

Row | Structure (SMILES) | Barnyardgrass plant response rating ([1]; 125 g ai/ha) | Barnyardgrass plant response rating ([1]; 500 g ai/ha) | Kochia plant response rating (kochia (Kochia scoparia) [2]; 125 g ai/ha) | Kochia plant response rating (kochia (Kochia scoparia) [2]; 500 g ai/ha) | Ragweed plant response rating ([3]; 125 g ai/ha) | Ragweed plant response rating ([3]; 500 g ai/ha) | Ryegrass, Italian plant response rating ([4]; 125 g ai/ha) | Ryegrass, Italian plant response rating ([4]; 500 g ai/ha) | Foxtail, Giant plant response rating ([5]; 125 g ai/ha) | Foxtail, Giant plant response rating ([5]; 500 g ai/ha) | Pigweed plant response rating ([6]; 125 g ai/ha) | Pigweed plant response rating ([6]; 500 g ai/ha) | Plant response rating, Barnyardgrass [7] | Barnyardgrass plant response rating [7] | Plant response rating, Kochia (kochia (Kochia scoparia) [8]) | Kochia plant response rating (kochia (Kochia scoparia) [8]) | Plant response rating, Ragweed [9] | Ragweed plant response rating [9] | Plant response rating, Ryegrass, Italian [10] | Ryegrass, Italian plant response rating [10] | further results
1 | CC[C@@H](Nc1ncc(C(F)(F)F)c(N)n1)c1cc2ccccc2s1 [Compound 43] | 70 | 70 | 90 | 100 | 100 | 100 | 20 | 50 | 80 | 90 | 90 | 100 | 20 | 100 | 90 | 90 | 60 | 90 | 40 | 40 | Plant response rating, Foxtail, Giant [11]: 30; Foxtail, Giant plant response rating [11]: 100; Plant response rating, Pigweed [12]: 100; Pigweed plant response rating [12]: 100; Plant response rating, Wheat [13]: 0; Wheat plant response rating [13]: 0; Plant response rating, Corn (corn (Zea mays)): 0; Corn plant response rating (corn (Zea mays)): 20; Plant response rating, Blackgrass [14]: 0; Blackgrass plant response rating [14]: 20; Plant response rating, Galium [15]: 70; Galium plant response rating [15]: 90; Plant response rating, Rice (0 to 100 scale, 0 is no effect, 100 is complete control) (rice (Oryza sativa)): 0; Plant response rating, Sedge, Umbrella (0 to 100 scale, 0 is no effect, 100 is complete control) [16]: 0; Plant response rating, Ducksalad (0 to 100 scale, 0 is no effect, 100 is complete control) [17]: 0; Plant response rating, Barnyardgrass (0 to 100 scale, 0 is no effect, 100 is complete control) [18]: 0
2 | CC[C@H](Nc1ncc(C(F)(F)F)c(N)n1)c1cc2ccccc2s1 [Compound 44] | 0 | 40 | 0 | 0 | 20 | 50 | 0 | 0 | 0 | 20 | 20 | 20 | 0 | 0 | 0 | 50 | 0 | 0 | 0 | 0 | Plant response rating, Foxtail, Giant [11]: 0; Foxtail, Giant plant response rating [11]: 10; Plant response rating, Pigweed [12]: 0; Pigweed plant response rating [12]: 60; Plant response rating, Wheat [13]: 0; Wheat plant response rating [13]: 0; Plant response rating, Corn (corn (Zea mays)): 0; Corn plant response rating (corn (Zea mays)): 0; Plant response rating, Blackgrass [14]: 0; Blackgrass plant response rating [14]: 20; Plant response rating, Galium [15]: 0; Galium plant response rating [15]: 0; Plant response rating, Rice (0 to 100 scale, 0 is no effect, 100 is complete control) (rice (Oryza sativa)): 0; Plant response rating, Sedge, Umbrella (0 to 100 scale, 0 is no effect, 100 is complete control) [16]: 0; Plant response rating, Ducksalad (0 to 100 scale, 0 is no effect, 100 is complete control) [17]: 0; Plant response rating, Barnyardgrass (0 to 100 scale, 0 is no effect, 100 is complete control) [18]: 0
3 | C[C@@H](Nc1ncc(C(F)(F)F)c(N)n1)c1cc2ccc(F)cc2s1 [Compound 46] | 20 | 90 | 90 | 100 | 80 | 100 | 20 | 80 | 70 | 100 | 100 | 100 | 20 | 60 | 90 | 90 | 50 | 80 | 0 | 40 | Plant response rating, Foxtail, Giant [11]: 10; Foxtail, Giant plant response rating [11]: 60; Plant response rating, Pigweed [12]: 100; Pigweed plant response rating [12]: 100; Plant response rating, Wheat [13]: 0; Wheat plant response rating [13]: 0; Plant response rating, Corn (corn (Zea mays)): 0; Corn plant response rating (corn (Zea mays)): 60; Plant response rating, Blackgrass [14]: 20; Blackgrass plant response rating [14]: 30; Plant response rating, Galium [15]: 60; Galium plant response rating [15]: 90; Plant response rating, Rice (0 to 100 scale, 0 is no effect, 100 is complete control) (rice (Oryza sativa)): 10; Plant response rating, Sedge, Umbrella (0 to 100 scale, 0 is no effect, 100 is complete control) [16]: 95; Plant response rating, Ducksalad (0 to 100 scale, 0 is no effect, 100 is complete control) [17]: 30; Plant response rating, Barnyardgrass (0 to 100 scale, 0 is no effect, 100 is complete control) [18]: 40
